# According to patent publication US10077243B2, “Compounds for treating disorders mediated by metabotropic glutamate receptor 5, and methods of use thereof” (Sunovion Pharmaceuticals Inc., priority 2009, dated 2018):
# pEC50: −log10 of the molar value.
# Biological target: T1, human mGluR5 (Homo sapiens, UniProt P41594)
# T1 construct: expressed in transfected cells; host or cells: HEK293 cells stably expressing rat GLAST (EAAT1), stably transfected with pcDNAzeo3.1 carrying synthetic human mGluR5 DNA; zeocin-selected single clones
# T1 sequence (P41594 21-1212): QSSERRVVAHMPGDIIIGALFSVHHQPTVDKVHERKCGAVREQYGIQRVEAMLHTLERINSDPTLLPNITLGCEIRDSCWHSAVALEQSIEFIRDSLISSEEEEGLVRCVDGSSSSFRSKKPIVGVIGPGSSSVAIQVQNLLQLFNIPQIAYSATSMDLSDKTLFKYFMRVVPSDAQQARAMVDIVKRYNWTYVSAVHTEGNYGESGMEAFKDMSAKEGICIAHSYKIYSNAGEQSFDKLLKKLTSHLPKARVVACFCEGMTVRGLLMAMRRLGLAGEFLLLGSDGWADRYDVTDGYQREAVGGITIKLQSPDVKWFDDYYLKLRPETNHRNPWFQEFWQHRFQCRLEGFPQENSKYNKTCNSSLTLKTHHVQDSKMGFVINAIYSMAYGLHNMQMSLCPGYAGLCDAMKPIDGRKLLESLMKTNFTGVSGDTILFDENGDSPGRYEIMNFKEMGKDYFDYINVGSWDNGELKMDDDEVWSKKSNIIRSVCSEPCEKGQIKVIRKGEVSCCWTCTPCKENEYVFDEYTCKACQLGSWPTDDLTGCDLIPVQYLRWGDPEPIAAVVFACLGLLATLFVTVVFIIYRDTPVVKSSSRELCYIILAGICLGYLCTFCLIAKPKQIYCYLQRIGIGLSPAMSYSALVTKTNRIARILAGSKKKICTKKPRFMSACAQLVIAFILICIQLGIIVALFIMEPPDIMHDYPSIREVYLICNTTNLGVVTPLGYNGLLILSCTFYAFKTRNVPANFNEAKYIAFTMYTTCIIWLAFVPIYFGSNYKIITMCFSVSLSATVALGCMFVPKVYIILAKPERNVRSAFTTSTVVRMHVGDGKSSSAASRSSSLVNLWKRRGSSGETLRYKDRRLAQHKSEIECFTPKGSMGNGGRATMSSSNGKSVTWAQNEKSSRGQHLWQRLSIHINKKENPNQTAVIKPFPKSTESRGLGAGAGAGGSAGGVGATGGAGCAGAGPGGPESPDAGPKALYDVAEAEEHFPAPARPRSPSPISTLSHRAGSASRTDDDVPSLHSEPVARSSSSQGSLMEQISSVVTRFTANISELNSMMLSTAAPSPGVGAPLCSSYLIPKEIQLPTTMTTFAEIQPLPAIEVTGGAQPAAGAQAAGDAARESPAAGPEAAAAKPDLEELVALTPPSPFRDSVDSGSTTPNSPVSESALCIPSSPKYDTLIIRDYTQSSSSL
# Experiment: In vitro cell-based FLIPR calcium assay for positive modulation of the activation of mGluR5 by glutamate (PAM EC50)
# Settings: HEK293/GLAST cells expressing recombinant human mGluR5; FLIPR calcium signal; glutamate added at its EC20; read-out: mGluR5 PAM EC50
# Text: The DNA sequences encoding the structural regions for rat mGluR5 [Abe T, Sugihara H, Nawa H, Shigemoto R, Mizuno N, Nakanishi S (1992) “Molecular characterization of a novel metabotropic glutamate receptor mGluR5 coupled to inositol phosphate/Ca^2+ signal transduction” Journal of Biological Chemistry vol. 267, no. 19, pp. 13361-8] and human mGluR5 [Daggett L P, Sacaan A I, Akong M, Rao S P, Hess S D, Liaw C, Urrutia A, Jachec C, Ellis S B, Dreessen J, Knöpfel T, Landwehrmeyer G B, Testa C M, Young A B, Varney M, Johnson E C, Veliçelebi (1995) “Molecular and functional characterization of recombinant human metabotropic glutamate receptor subtype 5” Neuropharmacology vol. 34, no. […] 53, no. 3, pp. 355-369] was obtained from Dr. Michael Robinson of the Children's Hospital of Philadelphia under a Material Transfer Agreement. The pcDNAzeo3.1 vector DNA, carrying either rat mGluR5 or human mGluR5, was used to transfect a sample of the HEK293/GLAST cells, and single clones that express mGluR5 were isolated from the transfected cells using zeocin selection. Expression of mGluR5 was assessed by measurement of the transient fluorescence signal elicited from HEK293/GLAST/mGluR5 cells by glutamate following the loading of the cells with a calcium-sensitive dye using a FLIPR Tetra (Fluorometric Imaging Plate Reader) (Molecular Devices, Sunnyvale, Calif.) [O'Brien J A, Lemaire W, Chen T B, Chang R S, Jacobson M A, Ha S N, Lindsley C W, Schaffhauser H J, Sur C, Pettibone D J, Conn P J, Williams D L Jr. […] 64, no. 3, pp. 731-740; Assay Guidance Manual Version 5.0, 2008, Eli Lilly and Company and NIH Chemical Genomics Center; available online HEK293/GLAST/mGluR5 cells were grown in Dulbecco's Modified Eagle Medium (DMEM) supplemented with 10% dialyzed fetal bovine serum, 20 millimolar (mM) N-2-hydroxyethylpiperazine-N′-2-ethanesulfonic acid (HEPES), penicillin, streptomycin, 1% GlutaMax™ (Invitrogen) and 50 μg/ml zeocin. Cells were grown in the media to 70-80% confluency at 37° C. under 5% CO2, 95% humidity in poly-D-lysine coated coated flasks. Cells for assays were plated into 96-well sterile standard microtiter plates (pre-coated with poly-D-lysine) at a density of 50,000 cells per well in 0.2 milliliters of media. Plated cells were allowed to settle and adhere for 30 minutes at ambient conditions, and then were incubated overnight at 37° C. under 5% CO2, 95% humidity. Several such 96-well plates were typically prepared. On the day of the assays, the components of the FLIPR calcium 4 assay kit (Molecular Devices) were dissolved according to the instructions of the dye kit's manufacturer in assay buffer (Hank's balanced salt solution (HBSS) (Gibco) supplemented with 20 mM HEPES). After removal of the growth media from the first plate, cells were loaded with calcium dye by addition of calcium dye solution (50 microliters per well) and incubation at 25° C. for 45 to 60 minutes. The first plate was placed into the FLIPR Tetra, and a dilution series of glutamate solutions in assay buffer were added to wells on the plate, followed by acquisition of fluorescence data for several minutes. The fluorescence data (maximal signal as a 4-parameter sigmoidal function of log [glutamate]) were processed by non-linear regression methods using the software package GraphPad Prism 5.01 (GraphPad Software Inc.), to yield a glutamate concentration-response curve (CRC). […] These values were, respectively, the concentrations of glutamate that elicit 20%, 50%, and 80% of the maximal FLIPR signal (observed at saturating [glutamate]). The method for measuring the concentration response of a potentiator, or positive allosteric modulator (PAM), is described here as an example. For that purpose, subsequent assays were typically performed using assay buffer containing a glutamate concentration equal to that day's EC20. […] Addition to certain wells of the same buffer containing 0.3% DMSO, but without any test compound, provided a negative control.
row,Compound,pEC50
1,"CN1CCCC1Cn1cnc2cc(C#Cc3cccc(F)c3)ccc2c1=O (centres unmarked) [Example 1.21, 7-((3-fluorophenyl)ethynyl)-3-((1-methylpyrrolidin-2-yl)methyl)quinazolin-4(3H)-one]",6.52 to 7.00
2,"Cn1c(C2CCOC2)nc2cc(C#Cc3cccc(F)c3)ccc2c1=O (centres unmarked) [Example 2.2, 7-((3-fluorophenyl)ethynyl)-3-methyl-2-(tetrahydrofuran-3-yl)quinazolin-4(3H)-one]",6.00 to 6.52
3,"Cn1c(C2CCCO2)nc2cc(C#Cc3cccc(F)c3)ccc2c1=O (centres unmarked) [Example 2.3, 7-((3-fluorophenyl)ethynyl)-3-methyl-2-(tetrahydrofuran-2-yl)quinazolin-4(3H)-one]",6.00 to 6.52
4,"CN1CCCC1c1nc2cc(C#Cc3cccc(F)c3)ccc2c(=O)n1C (centres unmarked) [Example 2.4, 7-((3-fluorophenyl)ethynyl)-3-methyl-2-(1-methylpyrrolidin-2-yl)quinazolin-4(3H)-one]",6.52 to 7.00
5,"Cn1c(CN2CCCC2)nc2cc(C#Cc3cccc(F)c3)ccc2c1=O [Example 2.6, 7-((3-fluorophenyl)ethynyl)-3-methyl-2-(pyrrolidin-1-ylmethyl)quinazolin-4(3H)-one]",6.52 to 7.00
6,"CC(C)Cc1nc2cc(C#Cc3cccc(F)c3)ccc2c(=O)n1C [Example 2.12, 7-((3-fluorophenyl)ethynyl)-2-isobutyl-3-methylquinazolin-4(3H)-one]",7.00 to 7.52
7,"COCCc1nc2cc(C#Cc3cccc(F)c3)ccc2c(=O)[nH]1 [Example 2.13, 7-((3-fluorophenyl)ethynyl)-2-(2-methoxyethyl)quinazolin-4(3H)-one]",6.52 to 7.00
8,"CCC(C)c1nc2cc(C#Cc3cccc(F)c3)ccc2c(=O)n1C (centres unmarked) [Example 2.14, 2-(sec-butyl)-7-((3-fluorophenyl)ethynyl)-3-methylquinazolin-4(3H)-one]",6.00 to 6.52
9,"CC(c1nc2cc(C#Cc3ccccn3)ccc2c(=O)n1C)N(C)C (centres unmarked) [Example 2.21, 2-(1-(dimethylamino)ethyl)-3-methyl-7-(pyridin-2-ylethynyl)quinazolin-4(3H)-one]",6.52 to 7.00
10,"CC(C)N(C)C(C)c1nc2cc(C#Cc3ccccn3)ccc2c(=O)n1C (centres unmarked) [Example 2.22, 2-(1-(isopropyl(methyl)amino)ethyl)-3-methyl-7-(pyridin-2-ylethynyl)quinazolin-4(3H)-one]",6.00 to 6.52
11,"CC(c1nc2cc(C#Cc3ccccn3)ccc2c(=O)n1C)N(C)C1CCC1 (centres unmarked) [Example 2.23, 2-(1-(cyclobutyl(methyl)amino)ethyl)-3-methyl-7-(pyridin-2-ylethynyl)quinazolin-4(3H)-one]",6.00 to 6.52
12,"CN(C)CC1CCc2nc3cc(C#Cc4cccc(F)c4)ccc3c(=O)n21 (centres unmarked) [Example 3.4, 1-((dimethylamino)methyl)-6-((3-fluorophenyl)ethynyl)-2,3-dihydropyrrolo[2,1-b]quinazolin-9(1H)-one]",6.52 to 7.00
13,"CC1CCc2nc3cc(C#Cc4ccccn4)ccc3c(=O)n21 (centres unmarked) [Example 3.14, 1-methyl-6-(pyridin-2-ylethynyl)-2,3-dihydropyrrolo[2,1-b]quinazolin-9(1H)-one]",6.52 to 7.00
14,"CN1CCCCC12Cc1nc3cc(C#Cc4cccc(F)c4)ccc3c(=O)n1C2 (centres unmarked) [Example 3.16, 6′-((3-fluorophenyl)ethynyl)-1-methyl-1′H-spiro[piperidine-2,2′-pyrrolo[2,1-b]quinazolin]-9′(3′ H)-one]",6.52 to 7.00
15,"O=c1c2ccc(C#Cc3ccccn3)cc2nc2n1CC(CO)C2 (centres unmarked) [Example 3.18, 2-(hydroxymethyl)-6-(pyridin-2-ylethynyl)-2,3-dihydropyrrolo[2,1-b]quinazolin-9(1H)-one]",6.52 to 7.00

# Continued, values first:
row,pEC50,Compound
1,6.52 to 7.00,"COCCn1cnc2cc(C#Cc3ccncc3)ccc2c1=O [Example 1.17, 3-(2-methoxyethyl)-7-(pyridin-4-ylethynyl)quinazolin-4(3H)-one]"
2,> 8.00,"CCC(C)n1cnc2cc(C#Cc3cccc(F)c3)ccc2c1=O (centres unmarked) [Example 1.19, 3-(sec-butyl)-7-((3-fluorophenyl)ethynyl)quinazolin-4(3H)-one]"
3,7.00 to 7.52,"CC(C)Cn1cnc2cc(C#Cc3cccc(F)c3)ccc2c1=O [Example 1.20, 7-((3-fluorophenyl)ethynyl)-3-isobutylquinazolin-4(3H)-one]"
4,> 8.00,"COCCc1nc2cc(C#Cc3cccc(F)c3)ccc2c(=O)n1C [Example 2.1, 7-((3-fluorophenyl)ethynyl)-2-(2-methoxyethyl)-3-methylquinazolin-4(3H)-one]"
5,7.00 to 7.52,"CN(C)Cc1nc2cc(C#Cc3cccc(F)c3)ccc2c(=O)n1C [Example 2.7, 2-((dimethylamino)methyl)-7-((3-fluorophenyl)ethynyl)-3-methylquinazolin-4(3H)-one]"
6,> 8.00,"CN1CCOCC1c1nc2cc(C#Cc3cccc(F)c3)ccc2c(=O)n1C (centres unmarked) [Example 2.9, 7-((3-fluorophenyl)ethynyl)-3-methyl-2-(4-methylmorpholin-3-yl)quinazolin-4(3H)-one]"
7,> 8.00,"COC(C)c1nc2cc(C#Cc3cccc(F)c3)ccc2c(=O)n1C (centres unmarked) [Example 2.11, 7-((3-fluorophenyl)ethynyl)-2-(1-methoxyethyl)-3-methylquinazolin-4(3H)-one]"
8,7.52 to 8.00,"COCc1nc2cc(C#Cc3cccc(F)c3)ccc2c(=O)n1C [Example 2.18, 7-((3-fluorophenyl)ethynyl)-2-(methoxymethyl)-3-methylquinazolin-4(3H)-one]"
9,> 8.00,"O=c1c2ccc(C#Cc3cccc(F)c3)cc2nc2n1CCC2 [Example 3.1, 6-((3-fluorophenyl)ethynyl)-2,3-dihydropyrrolo[2,1-b]quinazolin-9(1H)-one]"
10,7.00 to 7.52,"O=c1c2ccc(C#Cc3cccc(F)c3)cc2nc2n1C(CO)CC2 (centres unmarked) [Example 3.5, 6-((3-fluorophenyl)ethynyl)-1-(hydroxymethyl)-2,3-dihydropyrrolo[2,1-b]quinazolin-9(1H)-one]"
11,> 8.00,"COCC1CCc2nc3cc(C#Cc4cccc(F)c4)ccc3c(=O)n21 (centres unmarked) [Example 3.6, 6-((3-fluorophenyl)ethynyl)-1-(methoxymethyl)-2,3-dihydropyrrolo[2,1-b]quinazolin-9(1H)-one]"
12,7.00 to 7.52,"COCC1CCc2nc3cc(C#Cc4ccccn4)ccc3c(=O)n21 (centres unmarked) [Example 3.7, 1-(methoxymethyl)-6-(pyridin-2-ylethynyl)-2,3-dihydropyrrolo[2,1-b]quinazolin-9(1H)-one]"
13,> 8.00,CC1Cc2nc3cc(C#Cc4cccc(F)c4)ccc3c(=O)n2C1 (centres unmarked) [Example 3.8]
14,7.52 to 8.00,"CC(C)CC1Cc2nc3cc(C#Cc4cccc(F)c4)ccc3c(=O)n2C1 (centres unmarked) [Example 3.9, 6-((3-fluorophenyl)ethynyl)-2-isobutyl-2,3-dihydropyrrolo[2,1-b]quinazolin-9(1H)-one]"
15,> 8.00,O=c1c2ccc(C#Cc3cccc(F)c3)cc2nc2n1CC(Cc1ccccc1)C2 (centres unmarked) [Example 3.10]
16,7.52 to 8.00,"CC1Cc2nc3cc(C#Cc4ccccn4)ccc3c(=O)n2C1 (centres unmarked) [Example 3.11, 2-methyl-6-(pyridin-2-ylethynyl)-2,3-dihydropyrrolo[2,1-b]quinazolin-9(1H)-one]"
17,7.00 to 7.52,"COCC1Cc2nc3cc(C#Cc4ccccn4)ccc3c(=O)n2C1 (centres unmarked) [Example 3.19, 2-(methoxymethyl)-6-(pyridin-2-ylethynyl)-2,3-dihydropyrrolo[2,1-b]quinazolin-9(1H)-one]"
